In patent US12588678B2, “Oxazoline compound, synthesis method therefor and application thereof” (NANKAI UNIVERSITY, priority 2019, dated 2026):

Legend:
[1] = tested on: Tetranychus cinnabarinus mite larvae; experiment: Larvicidal activity test, dipping method on bean seedling leaves; assay type: in vivo; conditions: for mortality at 10 µg/mL / mortality at 100 µg/mL / mortality at 200 µg/mL / mortality at 0.1 µg/mL / mortality at 1 µg/mL / mortality at 0.001 µg/mL / mortality at 0.01 µg/mL / mortality at 0.5 µg/mL: Tetranychus cinnabarinus, 96 h, checked after 4 days; for mortality at 10 µg/mL: read-out: mortality of mite larvae (%), 10 mg/L; for mortality at 100 µg/mL: read-out: mortality of mite larvae (%), 100 mg/L; for mortality at 200 µg/mL: read-out: mortality of mite larvae (%), 200 mg/L; for mortality at 0.1 µg/mL: read-out: mortality of mite larvae (%), 0.1 mg/L; for mortality at 1 µg/mL: read-out: mortality of mite larvae (%), 1 mg/L; for acaricidal activity compared with etoxazole: Tetranychus cinnabarinus eggs and larvae, etoxazole as reference; for mortality at 0.001 µg/mL: read-out: mortality of mite larvae (%), 0.001 mg/L; for mortality at 0.01 µg/mL: read-out: mortality of mite larvae (%), 0.01 mg/L; for mortality at 0.5 µg/mL: read-out: mortality of mite larvae (%), 0.5 mg/L; for larvicidal activity, times that of etoxazole: relative to etoxazole
From the text: (§1) The assay examples are used to illustrate the acaricidal activity against Tetranychus cinnabarinus (mortality of mite larvae and mortality of mite eggs) of the compounds having the structure represented by formula (I), and the results are shown in tables 1 to 9, where mortality of mite larvae % =(number of dead mite larvae applied/total number of mite larvae applied)×100, and mortality of mite eggs %= (number of dead mite eggs applied/total number of mite eggs applied)×100.
Tetranychus cinnabarinus bred indoors on bean seedlings was used as a test subject by the dipping method. Move adult mites onto the newly grown complete bean seedling leaves with two leaves, cut off the bean seedlings, place the bean seedlings in a greenhouse with illumination at 25° C. for laying eggs for 24 hours, then remove adult mites and keep mite eggs. And continuously culture in the greenhouse for 5 days until mite eggs hatch into mite larvae (ensuring that the number of the mites on each tested leaf is not less than 60).
Completely immerse the bean seedling leaves containing the mite larvae into the sample solution to be detected with Tween at the prepared concentration for 5-6 seconds by using tweezers, slightly throw off residual liquid, put the bean seedling leaves back to the culture cup, continuously culture for 4 days and check the result. One of the plants was immersed in a solution containing no sample to be tested and the remaining additives were identical to the sample solution as a blank control. Each compound was replicated three times.

[2] = tested on: Tetranychus cinnabarinus mite eggs; experiment: Activity against mite eggs, dipping method on bean seedling leaves; assay type: in vivo; conditions: for mortality at 1 µg/mL / mortality at 10 µg/mL / mortality at 100 µg/mL / mortality at 200 µg/mL / mortality at 0.1 µg/mL / mortality at 0.001 µg/mL / mortality at 0.01 µg/mL / mortality at 0.5 µg/mL: Tetranychus cinnabarinus, 96 h, checked after 4 days; for mortality at 1 µg/mL: read-out: mortality of mite eggs (%), 1 mg/L; for mortality at 10 µg/mL: read-out: mortality of mite eggs (%), 10 mg/L; for mortality at 100 µg/mL: read-out: mortality of mite eggs (%), 100 mg/L; for mortality at 200 µg/mL: read-out: mortality of mite eggs (%), 200 mg/L; for mortality at 0.1 µg/mL: read-out: mortality of mite eggs (%), 0.1 mg/L; for mortality at 0.001 µg/mL: read-out: mortality of mite eggs (%), 0.001 mg/L; for mortality at 0.01 µg/mL: read-out: mortality of mite eggs (%), 0.01 mg/L; for mortality at 0.5 µg/mL: read-out: mortality of mite eggs (%), 0.5 mg/L; for activity on mite eggs, times that of etoxazole: relative to etoxazole
From the text: as §1
Tetranychus cinnabarinus bred indoors on bean seedlings was used as a test subject by the dipping method. Move female adult mites onto the newly grown complete bean seedling leaves with two leaves, cut off the bean seedlings, place the bean seedlings in a greenhouse with illumination at 25° C. for laying eggs for 24 hours, then remove adult mites and keep mite eggs. After continuously culturing in the greenhouse for one day, completely soak the bean seedling leaves containing the acarid eggs into the prepared sample solution to be tested for 5-6 seconds by using tweezers, slightly throw off residual liquid, put the bean seedling leaves back to the culture cup, continuously culture for 4 days and then check the result. One of the plants was immersed in a solution containing no sample to be tested and the remaining additives were identical to the sample solution as a blank control. Each compound was replicated three times.

SMILES	mortality at 10 µg/mL [1] [%]	mortality at 100 µg/mL [1] [%]	mortality at 200 µg/mL [1] [%]	mortality at 1 µg/mL [2] [%]	mortality at 10 µg/mL [2] [%]	mortality at 100 µg/mL [2] [%]	mortality at 200 µg/mL [2] [%]	mortality at 0.1 µg/mL [1] [%]	mortality at 1 µg/mL [1] [%]	mortality at 0.1 µg/mL [2] [%]	acaricidal activity compared with etoxazole [1]	mortality at 0.001 µg/mL [1] [%]	mortality at 0.01 µg/mL [1] [%]	mortality at 0.5 µg/mL [1] [%]	mortality at 0.001 µg/mL [2] [%]	mortality at 0.01 µg/mL [2] [%]	mortality at 0.5 µg/mL [2] [%]	larvicidal activity, times that of etoxazole [1] [times]	activity on mite eggs, times that of etoxazole [2] [times]
Fc1cccc(F)c1C1=NC(c2ccc(Cn3ccc4cc(Br)ccc43)cc2)CO1 (stereo not shown) [Compound R1-24]	60	100	100	40	80	100	100												
COc1ccc2ccn(Cc3ccc(C4COC(c5c(F)cccc5F)=N4)cc3)c2c1 (stereo not shown) [Compound R1-25]	20	70	80	40	65	90	100												
COCc1ccc(C2COC(c3c(F)cccc3F)=N2)cc1 (stereo not shown) [Compound R2-1]	100	100	100	97	100	100	100	50	85	60									
CCOCc1ccc(C2COC(c3c(F)cccc3F)=N2)cc1 (stereo not shown) [Compound R2-2]	90	100	100	95	100	100	100	80	90	85	higher acaricidal activity than etoxazole	30	50	83	40	65	90		
CCCOCc1ccc(C2COC(c3c(F)cccc3F)=N2)cc1 (stereo not shown) [Compound R2-3]	97	100	100	100	100	100	100	90	95	85	higher acaricidal activity than etoxazole	45	70	91	50	77	92	58	105
FCCOCc1ccc(C2COC(c3c(F)cccc3F)=N2)cc1 (stereo not shown) [Compound R2-4]	92	100	100	90	98	100	100	70	85	70									
Fc1cccc(F)c1C1=NC(c2ccc(COCC(F)(F)F)cc2)CO1 (stereo not shown) [Compound R2-5]	100	100	100	97	100	100	100	90	95	90	higher acaricidal activity than etoxazole	37	65	90	47	70	90	27	105
C=C(C)COCc1ccc(C2COC(c3c(F)cccc3F)=N2)cc1 (stereo not shown) [Compound R2-6]	100	100	100	100	100	100	100	80	90	95	higher acaricidal activity than etoxazole	21	45	80	30	60	86		
C#CCCOCc1ccc(C2COC(c3c(F)cccc3F)=N2)cc1 (stereo not shown) [Compound R2-7]	90	100	100	90	95	100	100	40	75	70									
Fc1cccc(F)c1C1=NC(c2ccc(COCC#Cc3ccccc3)cc2)CO1 (stereo not shown) [Compound R2-8]	92	100	100	80	90	100	100	50	80	60									
Fc1cccc(F)c1C1=NC(c2ccc(COCC3CCCO3)cc2)CO1 (stereo not shown) [Compound R2-9]	75	95	100	55	85	100	100		30										
Fc1cccc(F)c1C1=NC(c2ccc(COCc3ccco3)cc2)CO1 (stereo not shown) [Compound R2-10]	62	80	95		75	100	100												
Fc1cccc(F)c1C1=NC(c2ccc(COCc3cccs3)cc2)CO1 (stereo not shown) [Compound R2-11]	80	100	100	75	90	100	100		70										
Fc1cccc(F)c1C1=NC(c2ccc(COc3ccccn3)cc2)CO1 (stereo not shown) [Compound R2-12]	95	100	100	65	90	100	100		50										
Fc1cccc(F)c1C1=NC(c2ccc(COc3cccnc3)cc2)CO1 (stereo not shown) [Compound R2-13]	95	100	100	80	85	100	100		60	70									
Fc1cccc(F)c1C1=NC(c2ccc(COc3ccncc3)cc2)CO1 (stereo not shown) [Compound R2-14]		65	90		50	100	100												
Fc1cccnc1OCc1ccc(C2COC(c3c(F)cccc3F)=N2)cc1 (stereo not shown) [Compound R2-15]	60	80	100		70	100	100												
Fc1cccc(F)c1C1=NC(c2ccc(COc3ccncn3)cc2)CO1 (stereo not shown) [Compound R2-16]		50	88		50	100	100												
